# Values quoted from earlier work in patent US20140099366A1, “Composition Containing Two Anti-Dementia Drugs” (priority 2005, published 2014).
# Counter-ions that a name gives are not always drawn.
# System: patients with moderate to severe Alzheimer-type dementia
# Details: added to donepezil hydrochloride already administered, compared to placebo group
smiles,measurement,value
CC12CC3CC(C)(C1)CC(N)(C3)C2 [memantine hydrochloride],cognitive ability and activities of daily living,improved
